Assays:
[1] = test system: sarkosyl-insoluble tau in HeLa-V5-tau cells; assay: Sarkosyl soluble and insoluble fractionation of compound-treated HeLa-V5-tau cells; assay type: cell-based; details: 20 μM, 6 hours
Protocol: (§1) Brain homogenates and cultured cells were lysed with RIPA buffer (50 mM Tris pH 7.4, 150 mM NaCl, 2 mM ethlenediaminetetraacetic acid, 1% NP-40, 0.1% sodium dodecyl sulfate) plus protease and phosphatase inhibitors. Proteins were extracted and centrifuged at 15000 rpm for 15 min at 4° C., and RIPA insoluble fractions were lysed with 5% SDS with 1% β-mercaptoethanol, 50 mM Tris-HCl pH 6.8, 12.5 mM EDTA, 10% glycerol, and 0.02% bromophenol blue. Supernatants were used for western blot analysis. […]. co-IP experiments were carried out from NP40 lysates or indicated buffers with preclearing with IgG beads followed by IP with IgG beads alone or IgG beads+indicated antibodies, extensive washing (5×) with the original buffer, and Western blotting on SDS-PAGE. Sarkosyl extraction was performed as previously described (Hasegawa M, et al. (2007) Brain 130(Pt 5):1386-1394). Briefly, brain homogenates were lysed with A68 buffer containing 10 mM Tris-HCl, pH 7.4, 0.8M NaCl, 10% Sucrose, 1 mM EGTA). Samples were centrifuged at 400 g for 20 min at 4° C., and 1% sarkosyl was added to the collected supernatants. The samples were incubated for 1.5 h and centrifuged at 80,000 g for 30 min at room temperature. The pellets were resuspended in 100 ul of 50 mM Tris-HCl, pH 7.4.
FIGS. 27A and 27B show C1 and C2 compounds reduce pathogenic tau. […]

[2] = target: T1, GFP-βarrestin2/Flag-βarrestin2 complexes (βarrestin2 self-interaction) (Rattus norvegicus, UniProt P29067); assay: Co-immunoprecipitation (co-IP) for GFP-βarrestin2/Flag-βarrestin2 complexes; assay type: cell-based; details: 20 μM, 6 hours, Hela-V5-tau cells
T1 construct: expressed in transfected cells; host or cells: Hela-V5-tau cells
T1 sequence (P29067 whole entry, one chain of several): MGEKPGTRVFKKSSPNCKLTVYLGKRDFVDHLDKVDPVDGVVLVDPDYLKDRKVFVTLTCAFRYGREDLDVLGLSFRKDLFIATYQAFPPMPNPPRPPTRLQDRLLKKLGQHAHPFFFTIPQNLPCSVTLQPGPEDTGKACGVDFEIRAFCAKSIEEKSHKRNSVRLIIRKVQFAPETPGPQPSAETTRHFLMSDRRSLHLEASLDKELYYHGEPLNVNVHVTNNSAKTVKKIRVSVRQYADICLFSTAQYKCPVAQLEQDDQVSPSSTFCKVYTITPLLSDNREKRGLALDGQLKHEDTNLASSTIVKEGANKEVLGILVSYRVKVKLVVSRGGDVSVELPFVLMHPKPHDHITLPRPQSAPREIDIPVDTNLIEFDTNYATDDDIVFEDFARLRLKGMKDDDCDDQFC
Protocol: as §1
FIGS. 28A and 28B show compounds C2 and C2 inhibit β-arrestin2 oligomerization. […]

[3] = test system: total tau levels in HeLa-V5-tau cells; assay: Total tau by western blotting in HeLa-V5-tau cells treated with compounds; assay type: cell-based; details: 10 μM, 6 hours
Protocol: as §1
(n=4, one-way ANOVA, post hoc Dunnett's, **P<0.005, ***P<0.0005).

[4] = test system: HT7 (total human tau) in Tau-P301S hippocampal primary neurons; assay: HT7 staining of DIV21 hippocampal primary neurons from Tau-P301S mice treated with compounds; assay type: cell-based; details: 20 μM, 6 hours
Protocol: Primary mouse hippocampal and cortical neuronal cultures were previously described (Woo J A, et al. (2019) Commun Biol 2:112; Woo J A, et al. (2017) Hum Mol Genet 26(20):3973-3988; Woo J A, et al. (2015) Cell Death Differ 22(6):1069-1070). Briefly, primary neurons were prepared from P0 mice. Both hippocampus and cortex were dissected separately in HBSS and digested with trypsin. Neurons were plated on glass coverslips coated with poly-D-lysine (Sigma-Aldrich, St Louis, MO, USA) and maintained in neurobasal medium with glutamax (Invitrogen, Carlsbad, CA, USA) and B27 supplement (Invitrogen, Carlsbad, CA, USA).
Cells were fixed with 4% paraformaldehyde for 15 min at room temperature and washed with 0.2% triton in TBS and blocked using 3% BSA with 0.1% triton x-100 for 1 hr, incubated with primary antibodies for overnight at 4° C. and fluorescently labeled secondary antibodies for 45 min at room temperature. […] Images were captured with the Olympus FV10i confocal microscope (Tokyo, Japan), and the immunoreactivities were quantified using the Image J software (National Institutes of Health, Bethesda, MD). Immunoreactivities were quantitated from every 12th serial section through an entire hippocampus. […] Regions of interest were chosen randomly, and investigators were blinded to experimental conditions during image acquisition and quantification. […]

[5] = target: T2, GFP-βarrestin2/Flag-βarrestin2 complexes (β-arrestin2 oligomerization) (Rattus norvegicus, UniProt P29067); assay: Proximity ligation assay (PLA) for GFP-βarrestin2/Flag-βarrestin2 complexes; assay type: cell-based; details: 20 μM, 6 hours, Hela-V5-tau cells
T2 construct: expressed in transfected cells; host or cells: Hela-V5-tau cells
T2 sequence (P29067 whole entry, one chain of several): as above
Protocol: The assay was performed using commercially available reagents (Duolink, Sigma-Aldrich, St Louis, MO), with transfection of Hela V5-tau cells with WT β-arrestin2-flag and β-arrestin2-myc, without and with the mutant β-arrestin2 ΔIP6C or β-arrestin2 ΔIP6N constructs. Cells were fixed with 4% paraformaldehyde for 15 min at room temperature and washed with 0.2% triton in TBS. After washing, cells were blocked with 0.2% Triton in 3% Normal goat serum for 1 hour at room temperature. After applying primary antibodies overnight at 4° C., cells were washed and incubated with the PLA probes at 37° C. (1 h), washed with buffer A, incubated with ligation solution at 37° C. (30 min), washed with washing buffer A, incubated with amplification solution at 37° C. (100 min), and washed with washing buffer B before mounting.
FIGS. 28A and 28B show compounds C2 and C2 inhibit β-arrestin2 oligomerization. Hela-V5-tau cells were transfected with GFP-βarrestin2 and Flag-βarrestin2 and treated with 20 μM of 01, C1, or C2 for 6 hours.

[6] = target: T3, β-arrestin2 oligomerization (Rattus norvegicus, UniProt P29067); assay: FRET assay CFP-βarrestin2/YFP-βarrestin2 in Hela-V5-tau cells; assay type: cell-based; details: 20 μM, 30 min
T3 construct: expressed in transfected cells; host or cells: Hela-V5-tau cells
T3 sequence (P29067 whole entry): as the sequence (P29067 whole entry, one chain of several) above

phospho-tau [7] = assay: Phospho-tau immunoblot in Hela-V5-tau cells transfected with siRNA and treated with GPCR agonists; assay type: cell-based; details: for tau phosphorylation: 10 μM, control siRNA or β-arrestin2 siRNA experiment (FIGS. 13E,13F); for phospho-tau response in β-arrestin1 siRNA transfected cells: β-arrestin1 knockdown; for tau phosphorylation, control siRNA transfected cells: β-arrestin1 siRNA experiments (FIGS. 13A-13D)
Protocol: FIGS. 13A to 13F show β-arrestin1 is required for mGluR2 and β2AR mediated increase in pathogenic tau. […] After transfection, cells were treated with either vehicle or 10 μM isoproterenol (Iso), lysed and immunoblotted for indicated proteins. Representative blots are shown. […] 1-way ANOVA with Dunnett's test. […] Representative blots are shown. […] 1-way ANOVA with Dunnett's test. […] 1-way ANOVA with Dunnett's test.
At present, it is not clear how different GPCRs, such as β2AR and mGluR2, and their agonists alter tau phosphorylation. One commonality of downstream signaling between these GPCRs is β-arrestin1 and β-arrestin2, which were initially identified and characterized based on its function to internalize and desensitize GPCRs, including β2AR (Lohse, M. J. et al. J Biol Chem (1992) 267:8558-8564) and mGluR2 (lacovelli, L. et al. Mol Pharmacol (2009) 75:991-1003). To test whether β-arrestin1 and/or β-arrestin2 is required for β2AR-mediated regulation of tau, Hela-V5-tau cells were transfected with control siRNA or β-arrestin1 siRNA and treated either vehicle or 10 μM Iso. […] Next, assessed was whether β-arrestin1 is required for mGluR2-mediated tau phosphorylation. […] Next, Hela-V5-tau cells were transfected with control siRNA or β-arrestin2 siRNA and treated vehicle, 10 μM Iso or LY-379,268.

phospho-tau [8] = assay: Phospho-tau in tauP301S cortical primary neurons treated with GPCR agonists; assay type: cell-based, mice; details: 10 μM
Description: FIGS. 20A to 20E show β-arrestin is required mGluR2 and β2AR mediated tau accumulation and phosphorylation. […] Representative blots are shown. […] Unpaired t-test. All data are presented as mean±SEM. […] Representative blots are shown. […] Unpaired t-test. All data are presented as mean±SEM. […] Representative blots are shown.
Based on these prior observations, the goal was to confirm these findings in tauP301S transgenic primary neurons and Hela cells stably expressing tau (V5-tagged 4R0N tau, Hela-V5-tau cells).

tau phosphorylation [9] = details: cited from earlier work
tau phosphorylation [10] = details: cited from earlier work; remark: listed apart in the source

Structure (SMILES)	sarkosyl-insoluble tau levels [1]	βarrestin2 self-interaction by co-IP [2]	total tau levels [3]	HT7 immunoreactivity (total human tau) [4]	βarrestin2 oligomerization by PLA [5]	CFP to YFP FRET signal [6]	tau phosphorylation (phospho-tau [7])	phospho-tau response in β-arrestin1 siRNA transfected cells (phospho-tau [7])	tau phosphorylation, control siRNA transfected cells (phospho-tau [7])	phospho-tau (phospho-tau [8])	tau phosphorylation in rats (tau phosphorylation [9])	tau phosphorylation via ERK activation (tau phosphorylation [10])
O=C(CNC(=O)c1ccc2c(c1)CCC2)NCc1cn2ccccc2n1 [C1, 2-[(2,3-dihydro-1H-inden-5-yl)formamido]-N-({imidazo[1,2-a]pyridin-2-yl}methyl)acetamide]	significantly decreased	reduce βarrestin2 self-interaction to background levels	significantly decreased	significantly decreased	significant reduction							
Cc1ccc(NCCNC(=O)c2cc(-c3ccccc3)no2)nn1 [C2, N-{2-[(6-methylpyridazin-3-yl)amino]ethyl}-3-phenyl-1,2-oxazole-5-carboxamide]	significantly decreased	reduce βarrestin2 self-interaction to background levels	significantly decreased	significantly decreased	significant reduction	reduces CFP to YFP FRET signal						
CC(C)NCC(O)c1ccc(O)c(O)c1 (stereo not drawn) [Isoproterenol]							increased	failed to respond	increased	significantly increased	markedly increases tau phosphorylation	
N[C@@]1(C(=O)O)CO[C@H]2[C@H](C(=O)O)[C@H]21 [LY-379,268]							increased	failure to respond	increased	increased		increase tau phosphorylation

— patent US11896644B2, “Inhibition of beta-arrestin oligomerization in tauopathy” (UNIVERSITY OF SOUTH FLORIDA, priority 2020, dated 2024)
